Test results as given in PMC7026418, “The kinase polypharmacology landscape of clinical PARP inhibitors” (Scientific Reports, 2020).
Like-named read-outs stand apart in the source and are kept apart here. Each block holds one compound with its values, some of them ahead of it.

Experiments:
Test in all cases: biochemical
Design in all cases: DiscoveRx KINOMEscan active site-directed competition binding; percent of control kinase bound to immobilised ligand
MAPKAPK2 = MAPKAPK2 (Homo sapiens, UniProt P49137)
MKNK2 = MKNK2 (Homo sapiens, UniProt Q9HBH9)
[1] = target: T1, ABL1(Q252H)-nonphosphorylated (Homo sapiens, UniProt P00519, Q252H)
T1 construct: nonphosphorylated

CSK = CSK (Homo sapiens, UniProt P41240)
CSNK1G3 = CSNK1G3 (Homo sapiens, UniProt Q9Y6M4)
[2] = target: T2, RSK2(Kin.Dom.1-N-terminal) (Homo sapiens, UniProt P51812)
T2 construct: gene RPS6KA3; Kin.Dom.1-N-terminal

PCTK1 = target: T3, PCTK1 (Homo sapiens, UniProt Q00536)
T3 construct: gene CDK16

ERBB3 = ERBB3 (Homo sapiens, UniProt P21860)
JNK3 = target: T4, JNK3 (Homo sapiens, UniProt P53779)
T4 construct: gene MAPK10

BLK = BLK (Homo sapiens, UniProt P51451)
KIT-autoinhibited = KIT-autoinhibited (Homo sapiens, UniProt P10721)
MYLK = MYLK (Homo sapiens, UniProt Q15746)
JNK1 = target: T5, JNK1 (Homo sapiens, UniProt P45983)
T5 construct: gene MAPK8

MAP4K3 = target: T6, MAP4K3 (Homo sapiens, UniProt Q8IVH8)
T6 sequence (Q8IVH8 1-894): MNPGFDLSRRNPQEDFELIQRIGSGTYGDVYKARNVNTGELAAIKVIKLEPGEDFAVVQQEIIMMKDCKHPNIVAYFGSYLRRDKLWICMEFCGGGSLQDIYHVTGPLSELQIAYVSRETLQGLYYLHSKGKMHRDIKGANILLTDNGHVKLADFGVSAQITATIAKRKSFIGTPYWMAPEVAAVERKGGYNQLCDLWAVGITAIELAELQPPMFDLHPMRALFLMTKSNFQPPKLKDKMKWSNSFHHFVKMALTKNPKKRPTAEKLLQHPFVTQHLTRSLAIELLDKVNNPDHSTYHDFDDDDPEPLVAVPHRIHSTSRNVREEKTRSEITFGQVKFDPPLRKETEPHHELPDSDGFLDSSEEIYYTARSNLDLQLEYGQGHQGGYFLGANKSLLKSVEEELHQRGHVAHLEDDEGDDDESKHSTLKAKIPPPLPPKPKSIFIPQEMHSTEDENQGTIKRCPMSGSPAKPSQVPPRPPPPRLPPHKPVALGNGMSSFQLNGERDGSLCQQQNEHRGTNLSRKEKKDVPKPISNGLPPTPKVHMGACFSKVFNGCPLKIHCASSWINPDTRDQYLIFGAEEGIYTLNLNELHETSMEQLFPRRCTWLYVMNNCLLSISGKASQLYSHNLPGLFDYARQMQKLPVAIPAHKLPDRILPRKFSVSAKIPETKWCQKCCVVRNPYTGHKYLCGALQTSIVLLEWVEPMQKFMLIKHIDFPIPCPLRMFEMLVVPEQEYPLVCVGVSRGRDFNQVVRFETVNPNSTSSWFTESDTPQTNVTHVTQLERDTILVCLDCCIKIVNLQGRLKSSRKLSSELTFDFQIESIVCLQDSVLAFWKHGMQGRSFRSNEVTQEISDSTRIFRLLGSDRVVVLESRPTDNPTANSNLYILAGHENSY

BIKE = target: T7, BIKE (Homo sapiens, UniProt Q9NSY1)
T7 construct: gene BMP2K

NDR1 = target: T8, NDR1 (Homo sapiens, UniProt Q15208)
T8 construct: gene STK38

PCTK3 = target: T9, PCTK3 (Homo sapiens, UniProt Q07002)
T9 construct: gene CDK18

AKT3 = AKT3 (Homo sapiens, UniProt Q9Y243)
[3] = read-out: Olaparib / %Ctrl @ 10000nM
[4] = read-out: Talazoparib (BMN 673) / %Ctrl @ 10000nM
[5] = read-out: Rucaparib / %Ctrl @ 10000nM, binding competition, % of control
[6] = read-out: Niraparib (MK-4827) / %Ctrl @ 10000nM

T7 sequence (Q9NSY1 whole entry): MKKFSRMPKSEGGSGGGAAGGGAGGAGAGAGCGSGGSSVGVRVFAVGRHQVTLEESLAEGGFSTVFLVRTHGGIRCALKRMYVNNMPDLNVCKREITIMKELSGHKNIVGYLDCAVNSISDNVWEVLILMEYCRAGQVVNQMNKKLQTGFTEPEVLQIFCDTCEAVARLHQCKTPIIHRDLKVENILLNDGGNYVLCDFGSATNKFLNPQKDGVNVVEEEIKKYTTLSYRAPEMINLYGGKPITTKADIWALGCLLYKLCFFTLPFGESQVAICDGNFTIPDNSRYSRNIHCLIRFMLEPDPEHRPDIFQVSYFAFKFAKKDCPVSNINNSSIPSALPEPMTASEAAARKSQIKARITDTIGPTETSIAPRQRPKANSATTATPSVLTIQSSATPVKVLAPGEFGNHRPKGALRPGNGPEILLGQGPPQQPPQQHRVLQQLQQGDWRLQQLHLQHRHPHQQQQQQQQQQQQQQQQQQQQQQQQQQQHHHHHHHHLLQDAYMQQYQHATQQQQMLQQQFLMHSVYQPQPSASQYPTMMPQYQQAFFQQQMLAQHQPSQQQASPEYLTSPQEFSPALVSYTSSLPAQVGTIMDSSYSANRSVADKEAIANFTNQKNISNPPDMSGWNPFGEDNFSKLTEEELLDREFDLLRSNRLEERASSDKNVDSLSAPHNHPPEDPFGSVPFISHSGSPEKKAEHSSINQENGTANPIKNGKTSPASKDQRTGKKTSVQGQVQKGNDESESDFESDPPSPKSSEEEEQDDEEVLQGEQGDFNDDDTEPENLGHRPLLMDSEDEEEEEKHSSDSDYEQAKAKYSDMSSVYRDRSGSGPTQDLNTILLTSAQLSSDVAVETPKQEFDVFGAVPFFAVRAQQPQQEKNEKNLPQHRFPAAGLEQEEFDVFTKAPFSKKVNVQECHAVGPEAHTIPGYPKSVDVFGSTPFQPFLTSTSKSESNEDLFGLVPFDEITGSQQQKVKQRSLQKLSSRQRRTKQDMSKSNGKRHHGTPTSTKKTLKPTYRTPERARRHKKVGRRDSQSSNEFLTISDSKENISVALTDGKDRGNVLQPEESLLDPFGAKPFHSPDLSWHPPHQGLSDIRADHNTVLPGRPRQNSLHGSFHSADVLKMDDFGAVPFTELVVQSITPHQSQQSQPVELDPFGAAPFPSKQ
T2 sequence (P51812 whole entry): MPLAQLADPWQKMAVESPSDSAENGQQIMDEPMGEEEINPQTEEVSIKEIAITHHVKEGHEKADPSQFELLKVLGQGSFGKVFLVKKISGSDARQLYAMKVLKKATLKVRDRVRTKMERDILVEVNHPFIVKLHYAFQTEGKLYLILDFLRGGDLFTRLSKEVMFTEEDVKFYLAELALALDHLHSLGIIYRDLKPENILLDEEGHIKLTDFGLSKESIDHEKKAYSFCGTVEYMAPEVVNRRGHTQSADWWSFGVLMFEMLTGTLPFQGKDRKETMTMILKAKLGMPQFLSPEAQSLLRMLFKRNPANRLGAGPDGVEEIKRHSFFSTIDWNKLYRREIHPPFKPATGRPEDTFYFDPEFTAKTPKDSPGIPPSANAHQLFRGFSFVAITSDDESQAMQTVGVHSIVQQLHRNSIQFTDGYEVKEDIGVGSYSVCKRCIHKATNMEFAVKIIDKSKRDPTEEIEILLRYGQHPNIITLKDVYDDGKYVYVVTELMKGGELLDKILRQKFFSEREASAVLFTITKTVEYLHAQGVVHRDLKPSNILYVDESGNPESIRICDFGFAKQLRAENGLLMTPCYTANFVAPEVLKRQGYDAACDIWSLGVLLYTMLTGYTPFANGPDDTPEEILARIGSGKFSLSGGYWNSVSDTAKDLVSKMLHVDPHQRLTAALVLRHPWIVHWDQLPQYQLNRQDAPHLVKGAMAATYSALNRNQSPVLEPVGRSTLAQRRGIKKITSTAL
Chain of CSNK1G3 (Q9Y6M4 whole entry): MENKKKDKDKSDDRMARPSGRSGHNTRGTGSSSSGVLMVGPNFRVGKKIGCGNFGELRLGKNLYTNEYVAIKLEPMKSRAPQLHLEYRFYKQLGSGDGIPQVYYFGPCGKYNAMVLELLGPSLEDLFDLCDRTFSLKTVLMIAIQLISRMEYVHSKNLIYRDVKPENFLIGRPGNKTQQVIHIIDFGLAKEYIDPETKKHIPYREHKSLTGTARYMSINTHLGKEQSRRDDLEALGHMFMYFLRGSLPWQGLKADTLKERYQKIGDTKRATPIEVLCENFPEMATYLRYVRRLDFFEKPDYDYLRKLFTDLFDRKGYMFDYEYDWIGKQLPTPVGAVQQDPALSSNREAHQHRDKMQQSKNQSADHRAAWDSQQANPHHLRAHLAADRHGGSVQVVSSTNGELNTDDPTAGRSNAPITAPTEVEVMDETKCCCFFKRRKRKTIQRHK
T3 sequence (Q00536 whole entry): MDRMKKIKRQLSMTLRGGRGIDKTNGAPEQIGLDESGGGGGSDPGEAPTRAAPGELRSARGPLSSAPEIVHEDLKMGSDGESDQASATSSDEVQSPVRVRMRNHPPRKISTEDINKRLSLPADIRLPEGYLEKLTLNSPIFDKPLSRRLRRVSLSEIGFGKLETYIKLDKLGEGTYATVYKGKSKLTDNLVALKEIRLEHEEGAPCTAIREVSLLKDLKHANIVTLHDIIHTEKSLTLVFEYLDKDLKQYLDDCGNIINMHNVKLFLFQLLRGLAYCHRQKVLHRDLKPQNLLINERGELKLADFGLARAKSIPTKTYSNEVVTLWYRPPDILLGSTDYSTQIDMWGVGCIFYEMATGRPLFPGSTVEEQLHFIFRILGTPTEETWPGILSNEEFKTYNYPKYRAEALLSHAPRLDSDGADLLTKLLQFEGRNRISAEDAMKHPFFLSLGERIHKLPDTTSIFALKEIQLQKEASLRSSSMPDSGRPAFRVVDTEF
T9 sequence (Q07002 whole entry): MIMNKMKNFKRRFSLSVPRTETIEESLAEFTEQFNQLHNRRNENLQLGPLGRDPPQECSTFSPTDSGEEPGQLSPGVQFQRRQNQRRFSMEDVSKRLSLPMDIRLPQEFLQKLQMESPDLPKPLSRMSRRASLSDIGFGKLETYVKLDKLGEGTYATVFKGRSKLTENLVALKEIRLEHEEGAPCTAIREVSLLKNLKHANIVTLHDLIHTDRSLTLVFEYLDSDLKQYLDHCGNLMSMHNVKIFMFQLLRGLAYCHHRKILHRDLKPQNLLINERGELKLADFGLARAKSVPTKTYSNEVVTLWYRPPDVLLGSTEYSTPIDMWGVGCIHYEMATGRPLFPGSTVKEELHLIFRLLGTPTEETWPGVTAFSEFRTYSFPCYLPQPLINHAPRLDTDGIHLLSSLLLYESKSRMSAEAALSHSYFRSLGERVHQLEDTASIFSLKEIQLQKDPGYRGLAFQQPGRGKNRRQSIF
Chain of ERBB3 (P21860 whole entry): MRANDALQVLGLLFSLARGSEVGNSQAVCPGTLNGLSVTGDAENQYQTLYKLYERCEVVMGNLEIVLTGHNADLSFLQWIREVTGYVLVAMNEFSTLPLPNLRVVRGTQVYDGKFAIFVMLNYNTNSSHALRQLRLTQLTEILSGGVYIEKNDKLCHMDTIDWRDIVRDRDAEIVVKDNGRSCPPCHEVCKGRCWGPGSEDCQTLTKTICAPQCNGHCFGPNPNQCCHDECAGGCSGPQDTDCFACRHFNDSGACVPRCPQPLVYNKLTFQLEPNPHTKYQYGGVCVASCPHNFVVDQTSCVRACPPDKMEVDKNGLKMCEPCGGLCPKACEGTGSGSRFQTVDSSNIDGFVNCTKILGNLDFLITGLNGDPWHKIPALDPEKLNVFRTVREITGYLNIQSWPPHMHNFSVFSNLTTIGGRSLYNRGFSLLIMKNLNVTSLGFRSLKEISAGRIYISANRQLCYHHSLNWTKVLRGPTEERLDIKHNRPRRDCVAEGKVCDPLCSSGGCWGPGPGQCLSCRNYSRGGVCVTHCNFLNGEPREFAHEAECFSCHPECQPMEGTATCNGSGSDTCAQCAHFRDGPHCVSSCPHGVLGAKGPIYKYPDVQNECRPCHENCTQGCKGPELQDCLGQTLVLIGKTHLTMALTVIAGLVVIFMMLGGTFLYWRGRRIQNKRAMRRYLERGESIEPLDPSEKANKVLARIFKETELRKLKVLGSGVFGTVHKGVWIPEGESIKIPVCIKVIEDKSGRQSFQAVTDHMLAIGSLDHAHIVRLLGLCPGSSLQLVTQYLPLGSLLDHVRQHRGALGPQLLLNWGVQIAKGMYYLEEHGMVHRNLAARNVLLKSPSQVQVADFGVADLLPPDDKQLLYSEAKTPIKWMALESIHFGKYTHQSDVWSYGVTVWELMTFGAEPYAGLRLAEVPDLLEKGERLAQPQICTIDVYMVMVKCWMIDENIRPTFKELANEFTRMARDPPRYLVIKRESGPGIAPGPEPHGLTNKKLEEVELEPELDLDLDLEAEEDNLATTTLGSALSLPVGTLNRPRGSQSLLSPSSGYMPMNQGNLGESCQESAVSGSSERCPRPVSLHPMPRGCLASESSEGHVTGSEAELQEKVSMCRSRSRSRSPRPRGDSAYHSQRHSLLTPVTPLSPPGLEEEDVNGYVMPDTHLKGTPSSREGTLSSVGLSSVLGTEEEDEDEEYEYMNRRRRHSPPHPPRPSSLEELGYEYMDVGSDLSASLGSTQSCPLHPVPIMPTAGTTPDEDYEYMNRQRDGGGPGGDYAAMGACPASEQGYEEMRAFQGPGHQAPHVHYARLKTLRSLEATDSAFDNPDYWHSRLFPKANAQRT
Chain of MAPKAPK2 (P49137 whole entry): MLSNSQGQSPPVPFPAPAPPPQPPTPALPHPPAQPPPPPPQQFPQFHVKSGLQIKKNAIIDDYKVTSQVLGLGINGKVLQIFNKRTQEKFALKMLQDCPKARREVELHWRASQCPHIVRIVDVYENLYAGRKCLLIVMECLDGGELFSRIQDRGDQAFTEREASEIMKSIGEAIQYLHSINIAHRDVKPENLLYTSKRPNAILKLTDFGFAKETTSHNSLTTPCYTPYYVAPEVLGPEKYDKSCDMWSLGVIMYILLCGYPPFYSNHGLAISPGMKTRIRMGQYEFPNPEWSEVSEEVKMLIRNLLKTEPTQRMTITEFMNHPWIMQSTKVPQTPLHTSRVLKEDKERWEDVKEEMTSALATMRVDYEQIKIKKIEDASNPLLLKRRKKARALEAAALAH

- percent of control binding at 10 µM (MAPKAPK2; [3]): 84%
- percent of control binding at 10 µM (MKNK2; [3]): 87%
- percent of control binding at 10 µM [1, 3]: 98%
- percent of control binding at 10 µM (CSK; [3]): 99%
- percent of control binding at 10 µM (CSNK1G3; [3]): 93%
- percent of control binding at 10 µM [2, 3]: 94%
- percent of control binding at 10 µM (PCTK1; [3]): 99%
- percent of control binding at 10 µM (ERBB3; [3]): 83%
- percent of control binding at 10 µM (JNK3; [3]): 86%
- percent of control binding at 10 µM (BLK; [3]): 90%
- percent of control binding at 10 µM (KIT-autoinhibited; [3]): 93%
- percent of control binding at 10 µM (MYLK; [3]): 75%
- percent of control binding at 10 µM (JNK1; [3]): 98%
- percent of control binding at 10 µM (MAP4K3; [3]): 100%
- percent of control binding at 10 µM (BIKE; [3]): 100%
- percent of control binding at 10 µM (NDR1; [3]): 100%
- percent of control binding at 10 µM (PCTK3; [3]): 100%
- percent of control binding at 10 µM (AKT3; [3]): 100%
Compound: O=C(c1cc(Cc2n[nH]c(=O)c3ccccc23)ccc1F)N1CCN(C(=O)C2CC2)CC1 [Olaparib]

- percent of control binding at 10 µM (MAPKAPK2; [4]): 100%
- percent of control binding at 10 µM (MKNK2; [4]): 80%
- percent of control binding at 10 µM [1, 4]: 73%
- percent of control binding at 10 µM (CSK; [4]): 87%
- percent of control binding at 10 µM (CSNK1G3; [4]): 88%
- percent of control binding at 10 µM [2, 4]: 88%
- percent of control binding at 10 µM (PCTK1; [4]): 86%
- percent of control binding at 10 µM (ERBB3; [4]): 100%
- percent of control binding at 10 µM (JNK3; [4]): 91%
- percent of control binding at 10 µM (BLK; [4]): 99%
- percent of control binding at 10 µM (KIT-autoinhibited; [4]): 100%
- percent of control binding at 10 µM (MYLK; [4]): 77%
- percent of control binding at 10 µM (JNK1; [4]): 79%
- percent of control binding at 10 µM (MAP4K3; [4]): 100%
- percent of control binding at 10 µM (BIKE; [4]): 93%
- percent of control binding at 10 µM (NDR1; [4]): 72%
- percent of control binding at 10 µM (PCTK3; [4]): 99%
- percent of control binding at 10 µM (AKT3; [4]): 88%
Compound: Cn1ncnc1[C@H]1c2n[nH]c(=O)c3cc(F)cc(c23)N[C@@H]1c1ccc(F)cc1 [Talazoparib]

- percent of control binding at 10 µM (MAPKAPK2; [5]): 100%
- percent of control binding at 10 µM (MKNK2; [5]): 38%
- percent of control binding at 10 µM [1, 5]: 62%
- percent of control binding at 10 µM (CSK; [5]): 100%
- percent of control binding at 10 µM (CSNK1G3; [5]): 97%
- percent of control binding at 10 µM [2, 5]: 52%
- percent of control binding at 10 µM (PCTK1; [5]): 13%
- percent of control binding at 10 µM (ERBB3; [5]): 74%
- percent of control binding at 10 µM (JNK3; [5]): 71%
- percent of control binding at 10 µM (BLK; [5]): 91%
- percent of control binding at 10 µM (KIT-autoinhibited; [5]): 68%
- percent of control binding at 10 µM (MYLK; [5]): 34%
- percent of control binding at 10 µM (JNK1; [5]): 65%
- percent of control binding at 10 µM (MAP4K3; [5]): 91%
- percent of control binding at 10 µM (BIKE; [5]): 72%
- percent of control binding at 10 µM (NDR1; [5]): 69%
- percent of control binding at 10 µM (PCTK3; [5]): 69%
- percent of control binding at 10 µM (AKT3; [5]): 100%
Compound: CNCc1ccc(-c2[nH]c3cc(F)cc4c3c2CCNC4=O)cc1 [Rucaparib]

Compound: NC(=O)c1cccc2cn(-c3ccc([C@@H]4CCCNC4)cc3)nc12 [Niraparib]
- percent of control binding at 10 µM (MAPKAPK2; [6]): 80%
- percent of control binding at 10 µM (MKNK2; [6]): 71%
- percent of control binding at 10 µM [1, 6]: 58%
- percent of control binding at 10 µM (CSK; [6]): 90%
- percent of control binding at 10 µM (CSNK1G3; [6]): 85%
- percent of control binding at 10 µM [2, 6]: 94%
- percent of control binding at 10 µM (PCTK1; [6]): 47%
- percent of control binding at 10 µM (ERBB3; [6]): 100%
- percent of control binding at 10 µM (JNK3; [6]): 88%
- percent of control binding at 10 µM (BLK; [6]): 72%
- percent of control binding at 10 µM (KIT-autoinhibited; [6]): 85%
- percent of control binding at 10 µM (MYLK; [6]): 73%
- percent of control binding at 10 µM (JNK1; [6]): 85%
- percent of control binding at 10 µM (MAP4K3; [6]): 84%
- percent of control binding at 10 µM (BIKE; [6]): 81%
- percent of control binding at 10 µM (NDR1; [6]): 100%
- percent of control binding at 10 µM (PCTK3; [6]): 70%
- percent of control binding at 10 µM (AKT3; [6]): 97%
